This is an account of results in patent publication US8658693B2, “4-aminobenzonitrile selective androgen receptor modulators” (Eli Lilly and Company, priority 2011, dated 2014).

Usually Ki stands for the dissociation constant of the complex between target and ligand, obtained from inhibition or displacement. What is called EC50 is the concentration needed to bring the measured effect to its halfway point.

Where two headings read alike, the source gives them in different places. Some results are limits rather than exact numbers.

Data set [1] concerns the target T1, human PR (progesterone receptor) (Homo sapiens, UniProt P06401).
T1 construct: expressed in transfected cells; host or cells: HEK293
T1 sequence (P06401 1-933): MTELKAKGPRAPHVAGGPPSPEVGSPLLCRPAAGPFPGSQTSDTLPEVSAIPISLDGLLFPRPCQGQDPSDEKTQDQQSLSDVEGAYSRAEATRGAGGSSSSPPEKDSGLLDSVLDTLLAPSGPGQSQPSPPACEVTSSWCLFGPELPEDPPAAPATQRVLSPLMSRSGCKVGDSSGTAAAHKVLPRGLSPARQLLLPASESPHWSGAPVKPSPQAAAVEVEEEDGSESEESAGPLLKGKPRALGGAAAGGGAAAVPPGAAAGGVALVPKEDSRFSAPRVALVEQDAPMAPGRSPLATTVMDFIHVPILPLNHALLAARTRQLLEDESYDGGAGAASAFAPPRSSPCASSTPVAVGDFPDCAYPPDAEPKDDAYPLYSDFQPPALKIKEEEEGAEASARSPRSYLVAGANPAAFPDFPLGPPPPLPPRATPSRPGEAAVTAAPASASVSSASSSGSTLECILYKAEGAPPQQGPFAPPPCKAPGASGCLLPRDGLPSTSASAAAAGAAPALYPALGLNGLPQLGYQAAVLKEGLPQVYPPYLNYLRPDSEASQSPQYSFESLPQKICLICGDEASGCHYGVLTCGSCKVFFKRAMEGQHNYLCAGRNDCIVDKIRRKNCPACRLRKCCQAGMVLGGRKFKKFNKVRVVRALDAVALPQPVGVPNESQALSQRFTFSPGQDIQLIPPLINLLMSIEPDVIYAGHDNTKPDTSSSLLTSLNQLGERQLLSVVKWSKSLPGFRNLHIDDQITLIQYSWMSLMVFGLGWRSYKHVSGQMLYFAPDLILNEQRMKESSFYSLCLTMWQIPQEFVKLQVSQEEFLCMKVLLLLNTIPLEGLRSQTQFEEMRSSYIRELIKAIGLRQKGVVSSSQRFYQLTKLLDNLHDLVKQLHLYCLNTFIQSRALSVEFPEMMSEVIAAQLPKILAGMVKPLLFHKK
Kind of data set: Steroid hormone nuclear receptor binding assay, PR. As to conditions: HEK293 lysate, [3H]-methyltrienolone.

Data set [2] deals with T2, human GR (glucocorticoid receptor) (Homo sapiens, UniProt P04150).
T2 construct: expressed in transfected cells; host or cells: HEK293
T2 sequence (P04150 1-777): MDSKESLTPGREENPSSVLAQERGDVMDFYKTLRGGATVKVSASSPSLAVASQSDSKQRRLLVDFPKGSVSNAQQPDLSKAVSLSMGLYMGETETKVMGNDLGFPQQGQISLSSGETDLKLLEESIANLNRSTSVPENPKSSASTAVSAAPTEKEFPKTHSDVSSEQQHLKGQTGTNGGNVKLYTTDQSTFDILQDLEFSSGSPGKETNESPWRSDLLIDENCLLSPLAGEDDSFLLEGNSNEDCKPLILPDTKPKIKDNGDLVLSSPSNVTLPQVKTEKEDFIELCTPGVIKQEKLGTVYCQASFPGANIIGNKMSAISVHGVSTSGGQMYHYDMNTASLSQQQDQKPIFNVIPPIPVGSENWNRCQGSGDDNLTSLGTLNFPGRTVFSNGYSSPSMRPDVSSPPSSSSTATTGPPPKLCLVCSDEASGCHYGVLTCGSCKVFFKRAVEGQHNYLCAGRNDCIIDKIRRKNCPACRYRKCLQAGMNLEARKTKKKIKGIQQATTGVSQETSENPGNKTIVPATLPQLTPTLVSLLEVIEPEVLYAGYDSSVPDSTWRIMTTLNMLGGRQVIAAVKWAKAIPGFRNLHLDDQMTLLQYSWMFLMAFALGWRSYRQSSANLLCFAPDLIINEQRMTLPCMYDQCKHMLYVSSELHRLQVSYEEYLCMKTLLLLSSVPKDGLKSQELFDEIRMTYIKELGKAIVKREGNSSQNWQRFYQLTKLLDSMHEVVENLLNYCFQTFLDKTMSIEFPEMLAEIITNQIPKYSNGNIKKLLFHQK
Put plainly: Steroid hormone nuclear receptor binding assay, GR.

Data set [3] addresses T3, human androgen receptor (AR) (Homo sapiens, UniProt P10275).
T3 construct: expressed in transfected cells; host or cells: mouse myoblast C2C12 cells
T3 sequence (P10275 1-920): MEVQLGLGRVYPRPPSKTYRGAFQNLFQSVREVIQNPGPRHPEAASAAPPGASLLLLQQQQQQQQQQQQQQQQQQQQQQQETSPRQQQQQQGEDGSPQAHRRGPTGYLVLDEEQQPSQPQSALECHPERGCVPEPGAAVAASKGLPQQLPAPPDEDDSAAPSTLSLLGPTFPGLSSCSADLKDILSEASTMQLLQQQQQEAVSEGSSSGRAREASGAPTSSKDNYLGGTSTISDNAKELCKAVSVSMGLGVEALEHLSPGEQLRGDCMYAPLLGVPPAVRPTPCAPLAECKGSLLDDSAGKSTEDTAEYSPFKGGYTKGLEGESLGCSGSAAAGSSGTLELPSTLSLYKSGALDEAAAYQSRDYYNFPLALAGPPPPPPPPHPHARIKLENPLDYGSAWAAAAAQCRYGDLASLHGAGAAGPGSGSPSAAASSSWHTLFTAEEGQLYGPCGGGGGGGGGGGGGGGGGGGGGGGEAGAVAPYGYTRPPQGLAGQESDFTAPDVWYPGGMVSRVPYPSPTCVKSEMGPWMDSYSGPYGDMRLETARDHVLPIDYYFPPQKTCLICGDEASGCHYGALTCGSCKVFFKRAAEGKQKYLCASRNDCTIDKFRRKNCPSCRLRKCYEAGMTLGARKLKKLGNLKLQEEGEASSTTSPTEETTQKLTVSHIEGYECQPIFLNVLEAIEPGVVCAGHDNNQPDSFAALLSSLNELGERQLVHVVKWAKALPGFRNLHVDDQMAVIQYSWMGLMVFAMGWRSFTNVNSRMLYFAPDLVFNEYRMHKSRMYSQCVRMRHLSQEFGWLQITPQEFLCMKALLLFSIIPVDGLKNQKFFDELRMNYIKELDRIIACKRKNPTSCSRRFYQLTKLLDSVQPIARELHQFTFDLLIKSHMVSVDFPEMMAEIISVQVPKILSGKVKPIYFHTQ
Kind of data set: C2C12 AR/ARE reporter assay. The class given is cell-based. Conditions: mouse myoblast C2C12 cells, luciferase reporter, 24 h. Background: Reporter assays use an easily measured gene product as a stand-in for the process of interest.

Data set [4] addresses T4, human AR (androgen receptor) (Homo sapiens, UniProt P10275).
T4 construct: expressed in transfected cells; host or cells: HEK293
T4 sequence (P10275 1-920): T3 sequence (P10275 1-920)
Put plainly: Steroid hormone nuclear receptor binding assay, AR. Conditions: HEK293 lysate, [3H]-methyltrienolone.

Data set [5] deals with T5, human MR (mineralocorticoid receptor) (Homo sapiens, UniProt P08235).
T5 construct: expressed in transfected cells; host or cells: HEK293
T5 sequence (P08235 1-984): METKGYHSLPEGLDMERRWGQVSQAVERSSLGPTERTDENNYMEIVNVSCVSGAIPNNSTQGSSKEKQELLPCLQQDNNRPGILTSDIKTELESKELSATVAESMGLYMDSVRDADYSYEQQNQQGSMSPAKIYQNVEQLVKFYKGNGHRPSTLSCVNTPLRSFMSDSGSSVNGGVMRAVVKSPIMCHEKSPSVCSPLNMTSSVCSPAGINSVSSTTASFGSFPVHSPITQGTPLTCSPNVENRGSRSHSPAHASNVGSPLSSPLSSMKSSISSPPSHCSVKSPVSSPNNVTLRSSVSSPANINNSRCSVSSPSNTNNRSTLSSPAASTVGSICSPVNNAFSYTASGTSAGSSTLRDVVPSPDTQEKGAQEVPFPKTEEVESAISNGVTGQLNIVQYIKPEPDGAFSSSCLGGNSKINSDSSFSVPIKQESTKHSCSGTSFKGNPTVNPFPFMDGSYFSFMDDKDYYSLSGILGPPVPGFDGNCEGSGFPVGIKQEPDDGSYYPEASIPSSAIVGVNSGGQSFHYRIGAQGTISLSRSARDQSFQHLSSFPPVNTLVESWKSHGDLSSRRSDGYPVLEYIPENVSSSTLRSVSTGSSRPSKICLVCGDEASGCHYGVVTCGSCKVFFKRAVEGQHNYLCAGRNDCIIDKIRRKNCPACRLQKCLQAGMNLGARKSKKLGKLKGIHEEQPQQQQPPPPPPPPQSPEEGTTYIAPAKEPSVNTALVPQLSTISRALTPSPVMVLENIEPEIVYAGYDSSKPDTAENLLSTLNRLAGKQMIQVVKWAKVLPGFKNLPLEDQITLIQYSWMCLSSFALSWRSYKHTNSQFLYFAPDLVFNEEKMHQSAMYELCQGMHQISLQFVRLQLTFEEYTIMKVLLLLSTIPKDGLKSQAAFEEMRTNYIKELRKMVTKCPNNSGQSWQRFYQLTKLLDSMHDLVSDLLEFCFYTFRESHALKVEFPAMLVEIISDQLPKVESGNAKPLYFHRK
Put plainly: Steroid hormone nuclear receptor binding assay, MR. As to conditions: HEK293 lysate, [3H]-aldosterone.

The subject of data set [6] is HDL cholesterol in Cynomolgus monkeys. Conditions: transdermal delivery.
[7] abbreviates: HEK293 lysate, [3H]-dexamethasone, read-out: GR (Ki nM).

With `CCc1c(NC2CCOCC2(C)O)ccc(C#N)c1Cl` (single isomer, unassigned; diastereomer 2) [Example 32, 2-Chloro-3-ethyl-4-[[3-hydroxy-3-methyl-tetrahydropyran-4-yl]amino]benzonitrile, Diastereomer 2], the Ki in data set [1] is 4290 nM; in data set [2] (setting [7]) it was more than 5820 nM; in data set [4], 162 nM; in data set [5] it was 3960 nM. Also, in data set [3], the EC50 came to 0.274 µM.
In data set [2], `Cc1c(N[C@@H]2CCC[C@@]2(C)O)ccc(C#N)c1Cl` (single isomer, unassigned) [Example 1] showed a Ki of more than 6020 nM. Besides, the “effect on HDL” value in data set [6] is on record as “minimal effect”.
For the compound `Cc1c(N[C@H]2CC[C@H](O)[C@]2(C)O)ccc(C#N)c1Cl` (single isomer, unassigned) [Example 20], the Ki in data set [1] was more than 7960 nM; in data set [2] (setting [7]), more than 5730 nM; in data set [4], 38.1 nM; in data set [5], more than 7150 nM. In data set [3], this compound had a concentration giving a half-maximal response (EC50) of 0.146 µM.
